The test system of one series is sheep. The settings on record: ewes consuming Veratrum during early pregnancy; cited from earlier work.
In series [1] the test system is Sonic hedgehog signal transduction. The following applies: cited from earlier work.
The test system of series [2] is Veratrum californicum plant suspension cell lines. Description: Elicitation of steroid alkaloid production in plant suspension cell lines. The format is cell-based. The method, then: 100 μl 0.5% SDS solution and 50 μl 25% NH4OH was added to 100 mg FW frozen cell powder. After mixing 1 ml toluene was added and the solution was extracted for 10 min in an ultrasonic bath. Following centrifugation the organic layer was collected and the sample residue was twice re-extracted with another 1 ml toluene. The organic phases were combined and the solvent was evaporated to dryness. The residue was then quantitatively transferred to a GC vial and re-dissolved in 80 μl CH2Cl2. An aliquot was directly injected into the GC.
GC separation was performed using an Agilent 6890 system and was monitored with an Agilent 5973 Network MS Quadropole. The selected ion mode function was applied to record the characteristic molecular ions (cyclopamine: 124, 396; jervine: 110, 124). Within a set of samples the response values for the specific ions were used to compare relative levels of alkaloids. A mixture of commercially available reference compounds (cyclopamine and jervine) was routinely analyzed for comparison of retention times and fragmentation.

Series [3] relates to suspension lines A, B and C. Description: Cryopreservation of the cell suspension lines A, B and C. The format is cell-based, Veratrum californicum. The following applies: 5% (v/v), after osmotic dehydration. The method, then:
The suspension lines A, B and C were cryopreserved by using a Kryo10 device (Planer Biomed). The suspensions were subcultured 4 to 5 days prior to the start of the cryopreservation experiment. A dehydration procedure as follows was applied: I) Sugar alcohol concentration of the suspension was adjusted to 0.2 M by adding five times small aliquots of 4 M sorbitol during a period of 30 minutes. After sorbitol additions, the suspensions were incubated under normal growth conditions for 24 hours (in the dark, 25° C., on a rotary shaker (90 rpm)). II) Sugar alcohol concentration was adjusted to 0.4 M by 4 M sorbitol and incubations were carried out as in step I). The dehydrated suspensions were transferred to ice and DMSO was added to reach 5% (v/v) concentration. Cell:medium ratio was adjusted to 1:2 and suspensions were packed into ampulles. Protectant-treated suspensions were kept on ice for a period of 100 minutes. A freezing protocol as follows was applied: I) A rate of 10° C./min to reach 0° C. was followed by II) incubation at 0° C. for 20 minutes. The freezing was finalized by using III) a rate of 1° C./min to reach −40° C. and then IV) samples were immersed in liquid nitrogen. Thawing of cryopreserved samples was carried out by immersing the suspension ampulles straight from liquid nitrogen to a 40° C. water bath for 2 minutes. […] Cell division and growth of the cultures were monitored.

The test system of series [4] is Veratrum californicum embryos. Description: Embryogenic callus induction from mature embryos (% of embryogenesis). In kind it is cell-based. The settings on record: medium 502; data from 5 replicates.
A further series relates to suspension line B. Description: Growth optimization of the suspension cell line B. The format is cell-based, Veratrum californicum. The settings on record: AA medium, 4 mg/l. The method, then:
Growth of suspension line B on L2-medium with 2,4-D (2.5 mg/l) was further optimized. About 3 g (fw) of cells were transferred to an Erlenmeyer flask containing 50 ml liquid AA medium (with 2,4-D and NAA at levels of 2, 4 and 7 mg/l or without hormones), and incubated in the light (light intensity about 30-40 […] Osram cool white/Osram fluora, 1:1 on watt basis) on a rotary shaker (130 rpm) at 25° C. The volume of the liquid medium was added up to 100 ml after the second subculture. The suspensions were sub-cultured at three weeks intervals by replacing about half of the old culture with an equal volume of fresh medium.

Series [5] has as its system Veratrum californicum embryos. Description: Embryogenic callus induction from mature embryos (% of embryogenesis). In kind it is cell-based. The method, then:
(§1) Seeds of Veratrum californicum Durand were peeled, rinsed with 94% ethanol and surface sterilized with 1% (v/v) sodium hypochlorite supplemented with a few drops of Tween20 for 10 minutes, and finally rinsed three times with sterile water. Seeds were allowed to germinate for 2 days at 22° C. in the dark on moist filter paper. Embryos were excised and cultured on MS medium (11) solidified with gelrite (3% w/v) and supplemented with 1 mg/l kinetin and 1 mg/l NAA in the dark at 22° C. Produced calli were subcultured to fresh plates in two to three weeks intervals. After four months of culture calli were transferred to L2-medium (12) solidified with gelrite (3% w/v) and supplemented with 2.5 mg/l 2,4-D and were subsequentially subcultured to fresh plates at one month intervals. Embryogenic callus cultures from isolated V. californicum embryos were induced by the following media: Basal media MS (11), R2M (13), L2 (12), modified MS medium (mMS, consisting of MS basic salts and vitamins, 146 mg/l glutamine, 200 mg/l casein hydrolysate) and AA (14) supplemented with different hormones (picloram, NAA, 2,4-D, dicamba) at three levels (2, 4 and 7 mg/l) all solidified with gelrite (3% w/v). The cultures were kept in the dark, at 25° C. and embryogenic calli were subcultured at one month intervals.
Frequencies of embryos producing embryogenic calli and frequencies of regenerated green and albino plants were recorded. Oxidative browning percentages of embryos were calculated. Completely randomized designs (CRD) were used in the experiments. Each Petri-dish with 20 embryos was considered an experimental unit and each treatment contained five replicates. Data analyses with two treatment levels were carried out by t-test, and with more than two treatment levels by the ANOVA procedure. Multi-range comparisons were performed by the LSD test.

Series [6] relates to Veratrum californicum embryos. Description: Phenolic exudation / oxidative browning during embryo culture. In kind it is cell-based. The settings on record: mMS medium containing picloram. The method, then: as §1, with “The cultures were kept in the dark, at 25° C. and embryogenic calli were subcultured at one month intervals.” left out
Frequencies of embryos producing embryogenic calli and frequencies of regenerated green and albino plants were recorded. Oxidative browning percentages of embryos were calculated. […]

The mark [7] stands for this setting: medium AA, data from 5 replicates.
[8] abbreviates: medium MS, data from 5 replicates.
[9] abbreviates: medium R2M, data from 5 replicates.
[10] abbreviates: medium mMS, data from 5 replicates.
Setting [11] is: growth regulator 2 mg/l, average over mMS, R2M, AA.
[12] abbreviates: growth regulator 2 mg/l, medium AA.
The mark [13] stands for this setting: growth regulator 2 mg/l, medium R2M.
Setting [14] is: growth regulator 2 mg/l, medium mMS.
The mark [15] stands for this setting: growth regulator 4 mg/l, average over mMS, R2M, AA.
The mark [16] stands for this setting: growth regulator 4 mg/l, medium AA.
Setting [17] is: growth regulator 4 mg/l, medium R2M.
Setting [18] is: growth regulator 4 mg/l, medium mMS.
[19] abbreviates: growth regulator 7 mg/l, average over mMS, R2M, AA.
Where [20] appears, read: growth regulator 7 mg/l, medium AA.
[21] abbreviates: growth regulator 7 mg/l, medium R2M.
[22] abbreviates: growth regulator 7 mg/l, medium mMS.

Take `CC1=C2C[C@H]3[C@@H](CC=C4C[C@@H](O)CC[C@@]43C)[C@@H]2CC[C@]12O[C@@H]1C[C@H](C)CN[C@H]1[C@H]2C` [cyclopamine]: the teratogenicity entry in the series on sheep is “responsible teratogens”. For the same compound, in series [1], the “effect on Sonic hedgehog signal transduction” value was “selectively blocks Sonic hedgehog signal transduction”.
As for `CC/C=C\CC1C(=O)CCC1CC(=O)OC` (centres unmarked) [methyl-jasmonate, methyl jasmonate], the “production of cyclopamine and jervine upon elicitation” value in series [2] is “showed the production of cyclopamine and jervine”.
Consider `C[S+](C)[O-]` [DMSO], for which the cryoprotectant effect entry in series [3] is on record as “sufficient as a cryoprotectant”.
In the case of `CC1=C2C(=O)[C@H]3[C@@H](CC=C4C[C@@H](O)CC[C@@]43C)[C@@H]2CC[C@]12O[C@@H]1C[C@H](C)CN[C@H]1[C@H]2C` [jervine], in the series with sheep, the teratogenicity result was “responsible teratogens”.
As to `O=C(O)COc1ccc(Cl)cc1Cl` [2,4-D], the “% of embryogenesis” value in series [4] turned out to be 53.41%; in series [5] (setting [7]) it was 43.43%; in series [5] (setting [8]), 50.52%; in series [5] (setting [9]) it was 58.85%; in series [5] (setting [10]), 55.32%. For the same compound, the “growth of the suspension line B” value in the series with suspension line B is “improved the growth”. Besides, in series [5] (average over the five media), the “% of embryogenesis, Average” value is 52.33c %.
With `O=C(O)Cc1cccc2ccccc12` [NAA, 1-naphthaleneacetic acid], the “% of embryogenesis” value came to 64.98% in series [4]; 48.95% in series [5] (setting [12]); 63.75% in series [5] (setting [13]); 65.35% in series [5] (setting [14]); 64.21% in series [5] (setting [16]); 74.32% in series [5] (setting [17]). Further, the “% of embryogenesis” value in series [5] (setting [18]) stood at 73.67%; in series [5] (setting [20]), 68.06%; in series [5] (setting [21]), 73.01%; in series [5] (setting [22]), 75.37%; in series [5] (setting [7]) it was 62.04%; in series [5] (setting [8]), 62.62%. Moreover, the “% of embryogenesis” value in series [5] (setting [9]) is given as 73.95%; in series [5] (setting [10]), 74.93%. In the series on suspension line B, the “growth of the suspension line B” value is “improved the growth”. Also, the “% of embryogenesis, Average” value in series [5] (average over the five media) is 67.70a %; in series [5] (setting [11]) it was 59.35b %; in series [5] (setting [15]), 70.74a %; in series [5] (setting [19]), 72.15a %.
As for `Nc1c(Cl)c(Cl)nc(C(=O)O)c1Cl` [Picloram, picloram], the “% of embryogenesis” value in series [4] came to 68.32%; in series [5] (setting [12]), 51.43%; in series [5] (setting [13]), 68.53%; in series [5] (setting [14]), 69.76%; in series [5] (setting [16]), 62.59%; in series [5] (setting [17]), 75.73%. The “% of embryogenesis” value in series [5] (setting [18]) came to 80.57%; in series [5] (setting [20]) it was 59.97%; in series [5] (setting [21]) it was 76.07%; in series [5] (setting [22]), 81.46%; in series [5] (setting [7]), 59.75%; in series [5] (setting [8]), 69.32%. Moreover, the “% of embryogenesis” value in series [5] (setting [9]) is listed as 75.40%; in series [5] (setting [10]), 81.33%. Besides, in series [6], the “percentage of embryos producing phenolic exudates” value stood at 18.9%. In addition, the “% of embryogenesis, Average” value in series [5] (average over the five media) turned out to be 70.82a %; in series [5] (setting [11]), 63.24B %; in series [5] (setting [15]) it was 72.96A %; in series [5] (setting [19]), 72.50A %.
For `COc1c(Cl)ccc(Cl)c1C(=O)O` [Dicamba, dicamba], the “% of embryogenesis” value worked out at 55.61% in series [4]; 51.24% in series [5] (setting [7]); 50.90% in series [5] (setting [8]); 58.67% in series [5] (setting [9]); 60.79% in series [5] (setting [10]). Further, in series [5] (average over the five media), the “% of embryogenesis, Average” value was 55.44bc %.

Source of the values: patent publication US20090305338A1, “Plant cell lines established from the medicinal plant veratrum californicum” (priority 2006, published 2009).
